# US20250171465A1, “AKT INHIBITORS” (Stablix, Inc., priority 2023, published 2025)
# What was measured:
# Type in all cases: cell-based
# AKT1 E17 = molecular target: T1, AKT1 E17 (Homo sapiens, UniProt P31749, E17K); test: AKT plasma membrane translocation assay (AKT1 E17K-SmBiT / LCK1-LgBiT luminescence); settings: KU-19-19 cells transfected with AKT1E17K-SmBIT and LCK1-LgBiT, read up to 1 hr
# T1 construct: expressed in transfected cells; host or cells: KU-19-19
# Experimental: AKT plasma membrane translocation assay
# Seed 1.5×10^6 KU-19-19 cells in 10 cm dish. Transfect cells at 70% cell confluency with 5 ug AKTIE17K-SmBIT and 0.5 ug LCK1-LgBiT with Jet-Optimus transfection reagent. Incubate for 4-5 hours at 37c 5% CO2 TC incubator. Split and seed 10K cells in 40 ul media per well in 384 well plate and incubate over night at 37° C. CO2 free TC incubator. Add 10 ul of 5× Vivazine substrate (prepared in CO2 independent medium) to cells and shake palte to mix for 30 seconds. Read Luminescence for 100 minutes until signal is stable (1 read per minute). Add 50 nl/well of 3 uM compound stock to cells.
# AKT = AKT ubiquitination assay (TUBE pulldown, western blot); settings: KU-19-19 cells, 3 uM of compound, 6 hrs
# Experimental: For each assay condition. 5.0×10^6 KU-19-19 cells were seeded in 10 cm dish grown in RPMI (Invitrogen. Carlsbad. CA. USA) supplemented with 10% fetal bovine serum. Cells were incubated overnight at 37° C. in a humidified atmosphere containing 5% CO2. […]. Next day, media was removed and cells were rinsed with 0.1% FBS cell culture media. Then 10 mL of 0.1% FBS+RPMI containing 3 uM of compound was added to each plate and treated with compound for 6 hrs. Cells were washed 3× with PBS and placed on ice. 900 μL of lysis buffer (50 mM Tris-HCl pH 7.4, 150 mM NaCl. 1% NP-40, 1% Sodium deoxycholate. 2 mM EDTA, 10% Glycerol, 5 mM Iodoacetamide (dissolved in ddH2O, MCE, Cat #HY-34477), 1×HALT protease\phosphatase inhibitor (Pierce. Cat #78440), 1×PMSF (Sigma. Cat #93482-50ML-F), 5 mM 1.10 Phenanthroline (in DMSO, MCE, Cat #HY—W004544), 25 uM MG-132 (in DMSO) (MCE. Cat #HY-13259), 50 μM PR-619 (make it in DMSO) (MCE. Cat #HY-13814) and 1× Benzonase (Sigma. Cat #E8263) was added and incubated on ice for 3-5 min and then scraped and collected. Lysates were incubated on ice for 1 hr and vortexed every 15 minutes before spinning down at 14 000 g for 10 minutes. Supernatants were collected and flash frozen in Liquid nitrogen for 10 minutes and stored at −80 C until further used. Adjust volume of samples with lysis buffer to obtain 1 mg in total volume of 1 mL. Perform TUBES pulldown following manufacturer's procedure using TUBE1 (high capacity magnetic beads) (Cat #UM-0501M-1000. LifeSensors). Briefly, wash 150 μl beads per sample with 12× beads volume of PBST (0.1% Tweed-20) three times. Add 1 mL of protein lysate to beads and incubate for 4 hours rotating at 4 C. Wash 4× with 10× beads volume of lysis buffer and rotate for 3 minutes, then collect beads with magnet for 3 minutes before collecting buffer. Wash 1× with 5× beads volumes of PBS-T. Wash TUBEs with 100 μl wash buffer for 5 minutes on thermomixer set at 1400 rpm and 25 C. TUBE washing buffer/TUBE Elution buffer/TUBE Neutralization buffer (Cat #UM411. LifeSensors) Elute with 18 μl of TUBE elution buffer for 15 minutes on thermomixer set at 1400 rpm at 25 C, and then collect eluate and add 2 μl of neutralization buffer. Load 18 μl of pulldown sample and 10 μg of input samples onto gel for western blot using standard methods with following antibodies: AKT (pan) (C67E7) (CST. Cat #4691S). β-Actin antibody (Cat #A1978, sigma) (Dilution. 1:2000) Anti-rabbit IgG. HRP-linked Antibody (CST. Cat #7074S) (Dilution, 1:2000)
# MDAMB468.1 = test: Cell Titer Glo (CTG) proliferation assay, MDA-MB-468; settings: Homo sapiens, MDA-MB-468; MDAMB468.1 cells, 72.0 hrs.; read-out: AVE CTG Proliferation MDAMB468.1 72.0 hrs.
# Experimental: (§1) Seed cells in 40 μL of cell culture media into each well of 384-well cell culture plate, spin them at room temperature at 1,000 RPM for 1 minute and then transfer the plates into 37° C. 5% CO2 incubator overnight. Next day, treat cells with 40 nL of diluted compound and return to incubator. After compound treatment for 3 days, Add 30 μL of CellTiter-Glo reagent (Promega) into each well to be detected. Then place the plates at room temperature for 30 min followed by reading on EnVision. Inhibition activity calculated as % DMSO=100×(LumSample-Lum low control)/(Lum high control-Lum low control) where high control is from cells treated with 0.1% DMSO and Low control obtained from PBS only. Use XLFit (equation 201) to calculate IC50 (A+ ((B−A)/(1[…]((x/C)^D)))) where A: Bottom, B: Top, C: IC50, D: Slope.
# MDAMB231.1 = test: Cell Titer Glo (CTG) proliferation assay, MDA-MB-231; settings: Homo sapiens, MDA-MB-231; MDAMB231.1 cells, 72 hrs.; read-out: AVE CTG Proliferation MDAMB231.1 72 hrs.
# Experimental: as §1
# KU1919.1 = test: Cell Titer Glo (CTG) proliferation assay, KU1919; settings: Homo sapiens, KU-19-19; KU1919.1 cells, 72.0 hrs.; read-out: AVE CTG Proliferation KU1919.1 72.0 hrs.
# Summary of the method: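 After overnight seeding at 37 °C, 5% CO2, cells were exposed to compound for 3 days. Viability read by CellTiter-Glo luminescence after 30 min at room temperature.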
# T1 sequence (P31749 whole entry E17K): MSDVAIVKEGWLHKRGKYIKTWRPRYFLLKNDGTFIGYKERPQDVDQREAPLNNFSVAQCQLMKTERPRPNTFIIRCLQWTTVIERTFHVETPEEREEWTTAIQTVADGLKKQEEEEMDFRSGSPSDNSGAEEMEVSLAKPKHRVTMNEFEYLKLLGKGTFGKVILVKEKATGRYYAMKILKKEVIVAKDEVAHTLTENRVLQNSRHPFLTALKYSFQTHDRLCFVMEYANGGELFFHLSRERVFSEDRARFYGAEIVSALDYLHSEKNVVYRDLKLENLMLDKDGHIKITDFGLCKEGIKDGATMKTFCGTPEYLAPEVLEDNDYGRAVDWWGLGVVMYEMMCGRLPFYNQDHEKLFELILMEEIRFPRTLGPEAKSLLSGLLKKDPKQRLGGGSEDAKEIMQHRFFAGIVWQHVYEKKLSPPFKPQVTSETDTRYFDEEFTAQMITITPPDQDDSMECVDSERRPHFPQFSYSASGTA
SMILES,Reduced AKT1 E17 plasma membrane translocation relative to PBM (AKT1 E17),Reduced AKT ubiquitination relative to PBM (AKT),IC50 (MDAMB468.1) [µM],IC50 (MDAMB231.1) [µM],IC50 (KU1919.1) [µM]
CCOc1cc(OC)ccc1CNCC(=O)N1CCCC(c2cccc(C(=O)N[C@@H](C(=O)N3CCN(CC4CCN(CC(=O)N5CCN(CC[C@H](NC(=O)C6(N)CCN(c7ncnc8[nH]ccc78)CC6)c6ccc(Cl)cc6)CC5)CC4)CC3)C3CCCCC3)c2)C1 (stereo partly drawn) [Compound I-46],Yes,Yes,,,
NC1(C(=O)N[C@@H](CCN2CCN(C(=O)CN3CCC(OC4CCN(C(=O)[C@H](NC(=O)c5cccc(C6CN(C(=O)CNCc7ccc(F)cc7F)C6)c5)C5CCCCC5)CC4)CC3)CC2)c2ccc(Cl)cc2)CCN(c2ncnc3[nH]ccc23)CC1 [Compound I-242],Yes,Yes,1 to 5,1 to 5,0.5 to 1
NC1(C(=O)N[C@@H](CCN2CCC(OC3CCN(C(=O)c4cccc(C5CCCN(C(=O)C6CC6)C5)c4)CC3)CC2)c2ccc(Cl)cc2)CCN(c2ncnc3[nH]ccc23)CC1 (stereo partly drawn) [Compound I-248],,,5 to 10,5 to 10,1 to 5
NC1(C(=O)N[C@@H](CCN2CCC(OC3CCN(C(=O)c4cccc(C5CCCN(C(=O)CNC6CC6)C5)c4)CC3)CC2)c2ccc(Cl)cc2)CCN(c2ncnc3[nH]ccc23)CC1 (stereo partly drawn) [Compound I-252],,,5 to 10,> 10,5 to 10
NC1(C(=O)N[C@@H](CCN2CCN(C(=O)CN3CCC(OC4CCN(C(=O)[C@H](NC(=O)c5cccc(C6CCCN(C(=O)C7CC7)C6)c5)C5CCCCC5)CC4)CC3)CC2)c2ccc(Cl)cc2)CCN(c2ncnc3[nH]ccc23)CC1 (stereo partly drawn) [Compound I-254],Yes,Yes,1 to 5,1 to 5,1 to 5
NC1(C(=O)N[C@@H](CCN2CCN(C(=O)CN3CCC(OC4CCN(C(=O)[C@H](NC(=O)c5cccc(C6CCCN(C(=O)CNCc7ccc(F)cc7F)C6)c5)C5CCCCC5)CC4)CC3)CC2)c2ccc(Cl)cc2)CCN(c2ncnc3[nH]ccc23)CC1 (stereo partly drawn) [Compound I-258],,,1 to 5,1 to 5,0.5 to 1
NC1(C(=O)N[C@@H](CCN2CCN(C(=O)CN3CCC(OC4CCN(C(=O)[C@H](NC(=O)c5cccc(C6CCCN(C(=O)CNC7CC7)C6)c5)C5CCCCC5)CC4)CC3)CC2)c2ccc(Cl)cc2)CCN(c2ncnc3[nH]ccc23)CC1 (stereo partly drawn) [Compound I-259],,,1 to 5,1 to 5,1 to 5
CCc1cccc(-c2cc(F)c(C(=O)N3CCC(OC4CCN(CC(=O)NCCNC[C@@H](C(=O)N5CCN(c6ncnc7c6[C@H](C)C[C@H]7O)CC5)c5ccc(Cl)cc5)CC4)CC3)c(F)c2)c1 [Compound I-261],,,1 to 5,1 to 5,1 to 5
CCc1cccc(-c2cc(F)c(C(=O)N3CCN(CC4CCN(CC(C(=O)N5CCN(c6ncnc7c6[C@H](C)C[C@H]7O)CC5)c5ccc(Cl)cc5)CC4)CC3)c(F)c2)c1 (stereo partly drawn) [Compound I-262],,,1 to 5,1 to 5,0.5 to 1
C[C@@H]1C[C@@H](O)c2ncnc(N3CCN(C(=O)C(CN4CCC(CN5CCN(C(=O)[C@H](NC(=O)c6cccc([C@H]7CCCN(C(=O)C8CC8)C7)c6F)C6CCCCC6)CC5)CC4)c4ccc(Cl)cc4)CC3)c21 (stereo partly drawn) [Compound I-277],,,< 0.5,< 0.5,< 0.5
C[C@@H]1C[C@@H](O)c2ncnc(N3CCN(C(=O)C(CN4CCC(CN5CCN(C(=O)[C@H](NC(=O)c6cccc([C@@H]7CCCN(C(=O)C8CC8)C7)c6F)C6CCCCC6)CC5)CC4)c4ccc(Cl)cc4)CC3)c21 (stereo partly drawn) [Compound I-278],,,1 to 5,1 to 5,0.5 to 1
NC1(C(=O)N[C@@H](CCN2CCC(OC3CCN(C(=O)[C@H](NC(=O)c4cccc(C5CCCN(C(=O)CNCc6ccc(F)cc6F)C5)c4F)C4CCCCC4)CC3)CC2)c2ccc(Cl)cc2)CCN(c2ncnc3[nH]ccc23)CC1 (stereo partly drawn) [Compound I-279],,,1 to 5,1 to 5,0.5 to 1
NC1(C(=O)N[C@@H](CCN2CCC(OC3CCN(C(=O)c4c(F)cc(-c5ccccc5)cc4F)CC3)CC2)c2ccc(Cl)cc2)CCN(c2ncnc3[nH]ccc23)CC1 [Compound I-281],,,1 to 5,< 0.5,1 to 5
CC1(C(=O)N2CCCC(c3cccc(C(=O)N[C@@H](C(=O)N4CCC(OC5CCN(CC[C@H](NC(=O)C6(N)CCN(c7ncnc8[nH]ccc78)CC6)c6ccc(Cl)cc6)CC5)CC4)C4CCCCC4)c3F)C2)CC1 (stereo partly drawn) [Compound I-282],,,1 to 5,1 to 5,1 to 5
NC1(C(=O)N[C@@H](CCN2CCC(OC3CCN(C(=O)[C@H](NC(=O)c4cccc(C5CCCN(C(=O)CNC6CC6)C5)c4F)C4CCCCC4)CC3)CC2)c2ccc(Cl)cc2)CCN(c2ncnc3[nH]ccc23)CC1 (stereo partly drawn) [Compound I-283],,,1 to 5,1 to 5,1 to 5
CCc1cccc(-c2cnc(C(=O)N3CCN(CC45CCC(NCC(=O)NCCNC[C@@H](C(=O)N6CCN(c7cccc8c7[C@H](C)C[C@H]8O)CC6)c6ccc(Cl)cc6)(CC4)CO5)CC3)c(NC(=O)OC(C)(C)C)c2)c1 [Compound I-305],,,1 to 5,1 to 5,1 to 5
CCc1cccc(-c2cnc(C(=O)N3CCN(CC4CCN(CC(=O)NCCNC[C@@H](C(=O)N5CCN(c6ncnc7c6[C@H](C)C[C@H]7O)CC5)c5ccc(Cl)cc5)CC4)CC3)c(NC(=O)OC(C)(C)C)c2)c1 [Compound I-306],,,1 to 5,1 to 5,1 to 5
CC(C)(C)OC(=O)N[C@@H](C(=O)N1CCN(CC2CCN(CC(=O)N3CCN(CC[C@H](NC(=O)C4(N)CCN(c5ncnc6[nH]ccc56)CC4)c4ccc(Cl)cc4)CC3)CC2)CC1)C1CCCCC1 [Compound I-310],,,1 to 5,5 to 10,1 to 5
CC(C)(C)OC(=O)N1CCC(OC2CCN(CC(=O)N3CCN(CC[C@H](NC(=O)C4(N)CCN(c5ncnc6[nH]ccc56)CC4)c4ccc(Cl)cc4)CC3)CC2)CC1 [Compound I-315],,,1 to 5,> 10,1 to 5
"CC(C)NC[C@@H](C(=O)N1CCN(c2ncnc3c2[C@H](C)C[C@H]3O)CC1)c1ccc(Cl)cc1 [GDC-0068, Ipatasertib, reference compound]",,,> 10,> 10,> 10
